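Test compounds were applied to cells in 96-well plates for 48 hours at 5 doses. TGI denotes the concentration required for complete inhibition of growth.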
Tests used:
Assay in all cases: NCI-60 cell line screen, 48 h
[1] = tested on: HCC-2998 colon
[2] = tested on: A549 NSCLC
[3] = tested on: UACC-257 melanoma
[4] = tested on: MDA-MB-435
[5] = tested on: SK-MEL-2 melanoma
[6] = tested on: NCI-H460 lung
[7] = tested on: LOX IMVI melanoma
[8] = tested on: SW-620 colon
[9] = tested on: SF-268 CNS
[10] = tested on: BT-549 breast
[11] = tested on: HOP-62 NSCLC
[12] = tested on: SF-539 CNS
[13] = tested on: SN12C renal
[14] = tested on: 786-0 renal
[15] = tested on: HCT-116 colon
[16] = tested on: SK-MEL-5 melanoma
[17] = tested on: RXF 393 renal
[18] = tested on: NCI-H522 lung
[19] = tested on: OVCAR-4 ovarian
[20] = tested on: U251 CNS
[21] = tested on: SNB-75 CNS
[22] = tested on: T-47D breast
[23] = tested on: COLO 205 colon
[24] = tested on: M14 melanoma
[25] = tested on: DU-145 prostate
[26] = tested on: CAKI-1 renal
[27] = tested on: MOLT-4 leukemia
[28] = tested on: SF-295 CNS
[29] = tested on: UO-31 renal
[30] = tested on: SK-MEL-28 melanoma
[31] = tested on: NCI/ADR-RES ovarian
[32] = tested on: SNB-19 CNS
[33] = tested on: TK-10 renal
[34] = tested on: MCF7 breast
[35] = tested on: SR leukemia
[36] = tested on: HOP-92 NSCLC
[37] = tested on: MDA-MB-231 breast
[38] = tested on: HT29 colon
[39] = tested on: RPMI-8226 leukemia
[40] = tested on: OVCAR-8 ovarian
[41] = tested on: ACHN renal
[42] = tested on: MDA-N
[43] = tested on: A498 renal
[44] = tested on: NCI-H226 lung
[45] = tested on: HL-60(TB) leukemia
[46] = tested on: IGROV1 ovarian
[47] = tested on: UACC-62 melanoma
[48] = tested on: HCT-15 colon
[49] = tested on: OVCAR-5 ovarian
[50] = tested on: KM12 colon
[51] = tested on: NCI-H23 lung
[52] = tested on: K-562 leukemia
[53] = tested on: MALME-3M melanoma
[54] = tested on: PC-3 prostate
[55] = tested on: OVCAR-3 ovarian
[56] = tested on: HS 578T breast
[57] = tested on: CCRF-CEM leukemia
[58] = tested on: SK-OV-3 ovarian
[59] = tested on: EKVX NSCLC

For Oc1cc(-c2ccccc2)cn2c1nc1ccccc12, the TGI [1] was > 100 µM, the TGI [2] was > 100 µM and the TGI [3] was > 100 µM. For the same molecule, the TGI [4] was > 100 µM, the TGI [5] was > 100 µM and the TGI [6] was > 100 µM. The TGI [7] was > 100 µM, the TGI [8] was > 100 µM and the TGI [9] was > 100 µM. For the same molecule, the TGI [10] was > 100 µM, the TGI [11] was > 52.6 µM and the TGI [12] was > 96.6 µM. For the same molecule, the TGI [13] was > 100 µM, the TGI [14] was > 79.7 µM and the TGI [15] was > 100 µM. For the same molecule, the TGI [16] was 29.7 µM, the TGI [17] was > 100 µM and the TGI [18] was > 25.1 µM. For the same molecule, the TGI [19] was > 100 µM, the TGI [20] was > 100 µM and the TGI [21] was > 100 µM. The TGI [22] was > 100 µM, the TGI [23] was > 100 µM and the TGI [24] was > 100 µM. For the same molecule, the TGI [25] was > 31.6 µM, the TGI [26] was > 100 µM and the TGI [27] was > 100 µM. The TGI [28] was > 46.1 µM, the TGI [29] was > 32.8 µM and the TGI [30] was > 100 µM. The TGI [31] was 11.8 µM, the TGI [32] was > 100 µM and the TGI [33] was > 100 µM. For the same molecule, the TGI [34] was > 100 µM, the TGI [35] was > 28.5 µM and the TGI [36] was > 100 µM. For the same molecule, the TGI [37] was > 100 µM, the TGI [38] was > 77.7 µM and the TGI [39] was > 100 µM. For the same molecule, the TGI [40] was > 54.3 µM, the TGI [41] was > 100 µM and the TGI [42] was > 100 µM. The TGI [43] was > 100 µM, the TGI [44] was > 100 µM and the TGI [45] was 9.4 µM. For the same molecule, the TGI [46] was > 38.8 µM, the TGI [47] was 19.5 µM and the TGI [48] was > 100 µM. For the same molecule, the TGI [49] was > 100 µM, the TGI [50] was > 100 µM and the TGI [51] was > 100 µM. The TGI [52] was > 100 µM, the TGI [53] was > 100 µM and the TGI [54] was > 100 µM. For the same molecule, the TGI [55] was > 100 µM, the TGI [56] was 47.7 µM and the TGI [57] was > 100 µM. For the same molecule, the TGI [58] was 6.09 µM and the TGI [59] was > 100 µM.

— PubChem BioAssay (NCI)
